Source: the supplement of paper PMC8671470

Columns and labels:
Assay in all cases: cell viability (% survival relative to DMSO control, bortezomib = 0%); higher = less cytotoxic
Conditions in all cases: 72 h
HEL = test system: HEL
Method in brief: (§1)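 Seeding density for each of the 10 AML and 5 CML cell lines was titrated to the linear growth range. Cells went into 384-well plates pre-printed in duplicate with compounds at 1, 10, 100, 1000 or 10000 nM and were held for 72 h at 37 °C with 5% CO2. CellTiter-Glo luminescence then provided the readout. Percent survival is expressed relative to vehicle at 100% and a 10 µM positive control at 0%, averaged over duplicates.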

HL-60 = test system: HL-60
Method in brief: as §1

KU-812 = test system: KU-812
Method in brief: as §1

NOMO-1 = test system: NOMO-1
Method in brief: as §1

Row | Compound | cell viability (HEL; 1 nM) | cell viability (HEL; 10 nM) | cell viability (HEL; 100 nM) | cell viability (HEL; 1000 nM) | cell viability (HEL; 10000 nM) | cell viability (HL-60; 1 nM) | cell viability (HL-60; 10 nM) | cell viability (HL-60; 100 nM) | cell viability (HL-60; 1000 nM) | cell viability (HL-60; 10000 nM) | cell viability (KU-812; 1 nM) | cell viability (KU-812; 10 nM) | cell viability (KU-812; 100 nM) | cell viability (KU-812; 1000 nM) | cell viability (KU-812; 10000 nM) | cell viability (NOMO-1; 1 nM) | cell viability (NOMO-1; 10 nM) | cell viability (NOMO-1; 100 nM) | cell viability (NOMO-1; 1000 nM) | cell viability (NOMO-1; 10000 nM)
1 | C[C@H]1O[C@@H](O[C@H]2[C@@H](O)C[C@H](O[C@H]3[C@@H](O)C[C@H](O[C@H]4CC[C@@]5(C)[C@H](CC[C@@H]6[C@@H]5C[C@@H](O)[C@]5(C)[C@@H](C7=CC(=O)OC7)CC[C@]65O)C4)O[C@@H]3C)O[C@@H]2C)C[C@H](O)[C@@H]1O [Digoxin] | 97.3% | 92.9% | 49% | -0.296% | -0.0735% | 104% | 107% | -0.615% | -0.309% | -0.00704% | 92.2% | 113% | 30.5% | 4.45% | 4.24% | 97.9% | 105% | 60.3% | -0.211% | -0.0253%
2 | CC(C)Cc1sc(N)nc1-c1ccc(P(=O)(O)O)o1 | 95.3% | 93.1% | 118% | 109% | 85.5% | 56.2% | 90.1% | 72.8% | 105% | 67% | 96.3% | 94.9% | 98.7% | 90.6% | 88.2% | 97.7% | 96.9% | 98% | 99.5% | 83.9%
3 | O=C(O)c1nn(Cc2ccc(Cl)cc2Cl)c2ccccc12 [Lonidamine] | 102% | 111% | 120% | 99.5% | 106% | 100% | 119% | 90.2% | 82.2% | 105% | 103% | 97% | 112% | 97% | 88.8% | 96.7% | 99.9% | 107% | 106% | 105%
4 | C1CCC(C(CC2CCCCN2)C2CCCCC2)CC1.O=C(O)/C=C\C(=O)O (stereo not given) [Perhexiline] | 108% | 82.7% | 108% | 91.3% | 14.1% | 91.2% | 90.1% | 110% | 93% | -0.124% | 96.3% | 85.1% | 94.9% | 99% | 8.47% | 91.6% | 82.6% | 88.7% | 94.9% | 25.9%
5 | C#Cc1cnc(O)nc1O [Eniluracil] | 100% | 92.2% | 118% | 90.1% | 106% | 112% | 134% | 123% | 95.1% | 111% | 94.9% | 109% | 95.2% | 94.3% | 89.7% | 96.4% | 103% | 101% | 104% | 109%
6 | COc1c(C)c2c(c(O)c1C/C=C(\C)CCC(=O)O)C(=O)OC2 [Mycophenolic acid] | 94.5% | 108% | 104% | 51.7% | 3.56% | 108% | 117% | 80% | 51.3% | 18.4% | 94.6% | 94.5% | 104% | 51.7% | 10.9% | 103% | 96.6% | 106% | 89.2% | 24.7%
7 | Cc1noc2c1-c1ccccc1C(c1ccc(Cl)cc1)=N[C@H]2CC(N)=O [CPI-0610] | 103% | 98.5% | 114% | 74.5% | 18.5% | 110% | 102% | 69.4% | 33% | 16.1% | 97.2% | 99.8% | 73.1% | 36% | 4.66% | 102% | 96.3% | 79% | 33.6% | 11.7%
8 | Nc1ncnc2c1ncn2[C@@H]1O[C@H](CSCC[C@H](N)C(=O)O)[C@@H](O)[C@H]1O [S-Adenosyl Homocysteine] | 108% | 114% | 104% | 101% | 113% | 103% | 101% | 115% | 111% | 74.9% | 90.8% | 96.9% | 99.2% | 104% | 105% | 101% | 104% | 103% | 98.1% | 104%
9 | O=C(O)CC[C@H](NC(=O)c1ccc([N+](=O)[O-])cc1)C(=O)O [(S)-2-(4-Nitrobenzamido)pentanedioic acid] | 89.9% | 107% | 94% | 96.3% | 90.4% | 78% | 107% | 113% | 83.6% | 93.7% | 91.6% | 100% | 98.7% | 96.9% | 89.8% | 92.4% | 95% | 99.6% | 105% | 95.6%
10 | NC(=O)c1ncn([C@@H]2O[C@H](CO)[C@@H](O)[C@H]2O)n1 [Ribavirin] | 92.5% | 104% | 111% | 113% | 112% | 92.6% | 101% | 130% | 110% | 149% | 81.4% | 92.7% | 91.3% | 104% | 94.6% | 99% | 102% | 103% | 106% | 103%
